Experimental data reported in patent US9120812B2, “Pyrimidooxazocine derivatives as mTOR-inhibitors” (SANOFI, priority 2012, dated 2015).

How the values were obtained:
[1] = target: mTOR (human recombinant aa mTOR 1360-2549) (Homo sapiens (Human), UniProt P42345); assay: mTOR enzymatic test by TR-FRET (phosphorylation of GFP-4EBP1); assay type: biochemical
Description: Model 1: mTOR Enzymatic Test by TR-FRET (Time-resolved Fluorescence Resonance Energy Transfer).
The test detects the phosphorylation of the substrate GFP-4EBP1 using a terbium-labelled antibody that is specific for the phospho-Thr46 epitope. Binding of the Tb-antibody to the phosphorylated GFP peptide allows the transfer of energy from Tb, excited at 340 nm, to GFP with an increase in the fluorescence emission of the GFP at 520 nm. […] The mixture is incubated for 30 minutes at room temperature. 10 μl of solution are taken up and the reaction is quenched by adding 10 μl of Tb-antibody solution (Invitrogen PV4757)/EDTA (2 nM Tb-Ac and 10 mM EDTA final). After 60 minutes at room temperature, the fluorescence at 490 nm, from the Tb emission, and at 520 nm, from the GFP emission, is measured in a BMG PHERAstar reader equipped with a Lanthascreen™ filter (excitation at 340 nm, emission at 490 and 520 nm). The results are given in the form of the 520/490 ratio.

[2] = target: PI3Kα (p110α/p85α) (Homo sapiens (Human), UniProt P42336); assay: PI3Kα enzymatic test by measuring the consumption of ATP; assay type: biochemical
Description: Model 2: PI3Kα Enzymatic Test by Measuring the Consumption of ATP.
The test uses a lucifeurerin/luciferase system to measure the concentration of ATP and its consumption during the enzymatic reaction. The test is performed in 96-well format (Corning/Costar 96 black flat-bottomed half-wells plate, ref. 3694) in a total volume of 30 μl.
To 1 μl of inhibitor in 100% DMSO are added (final concentrations) 50 μM of the substrate PIP2 ((L-α-phosphatidyl-D-myoinositol 4,5-bisphosphate, Echelon 117P-4516-0500), 2 μM of ATP and 1.7 μg/ml of PI3Kα, (p110α/p85α, Invitrogen PV4788) in a buffer of Tris/HCl 50 mM pH 7.5, EGTA 1 mM, MgCl2 10 mM, Chaps 0.03%, 1 mM DTT). After 90 minutes, the reaction is quenched by adding 20 μl/well of KinaseGlo reagent (Promega V6713). After 10 minutes in the dark, the luminescence is read on the PHERAStar microplate reader (reading at 0.8 sec/well).
The IC50 values are determined by the preparation of successive threefold dilutions on at least a scale of 10 000.

[3] = tested on: U87MG tumour cells; assay: Test of in vitro proliferation of U87MG tumour cells; assay type: cell-based; details: Homo sapiens, U-87 MG, 72 h, U87MG cells, 72 hours; read-out: U87 Cell Proliferation IC50
Description: Model 4: Test of in vitro Proliferation of U87MG Tumour Cells.
The cell growth is determined with the reagent CellTiter 96 AQueous One Solution Cell Proliferation Assay from Promega (Cat. No. G3581).

mTOR (human recombinant aa mTOR 1360-2549), sequence (P42345 1360-2549): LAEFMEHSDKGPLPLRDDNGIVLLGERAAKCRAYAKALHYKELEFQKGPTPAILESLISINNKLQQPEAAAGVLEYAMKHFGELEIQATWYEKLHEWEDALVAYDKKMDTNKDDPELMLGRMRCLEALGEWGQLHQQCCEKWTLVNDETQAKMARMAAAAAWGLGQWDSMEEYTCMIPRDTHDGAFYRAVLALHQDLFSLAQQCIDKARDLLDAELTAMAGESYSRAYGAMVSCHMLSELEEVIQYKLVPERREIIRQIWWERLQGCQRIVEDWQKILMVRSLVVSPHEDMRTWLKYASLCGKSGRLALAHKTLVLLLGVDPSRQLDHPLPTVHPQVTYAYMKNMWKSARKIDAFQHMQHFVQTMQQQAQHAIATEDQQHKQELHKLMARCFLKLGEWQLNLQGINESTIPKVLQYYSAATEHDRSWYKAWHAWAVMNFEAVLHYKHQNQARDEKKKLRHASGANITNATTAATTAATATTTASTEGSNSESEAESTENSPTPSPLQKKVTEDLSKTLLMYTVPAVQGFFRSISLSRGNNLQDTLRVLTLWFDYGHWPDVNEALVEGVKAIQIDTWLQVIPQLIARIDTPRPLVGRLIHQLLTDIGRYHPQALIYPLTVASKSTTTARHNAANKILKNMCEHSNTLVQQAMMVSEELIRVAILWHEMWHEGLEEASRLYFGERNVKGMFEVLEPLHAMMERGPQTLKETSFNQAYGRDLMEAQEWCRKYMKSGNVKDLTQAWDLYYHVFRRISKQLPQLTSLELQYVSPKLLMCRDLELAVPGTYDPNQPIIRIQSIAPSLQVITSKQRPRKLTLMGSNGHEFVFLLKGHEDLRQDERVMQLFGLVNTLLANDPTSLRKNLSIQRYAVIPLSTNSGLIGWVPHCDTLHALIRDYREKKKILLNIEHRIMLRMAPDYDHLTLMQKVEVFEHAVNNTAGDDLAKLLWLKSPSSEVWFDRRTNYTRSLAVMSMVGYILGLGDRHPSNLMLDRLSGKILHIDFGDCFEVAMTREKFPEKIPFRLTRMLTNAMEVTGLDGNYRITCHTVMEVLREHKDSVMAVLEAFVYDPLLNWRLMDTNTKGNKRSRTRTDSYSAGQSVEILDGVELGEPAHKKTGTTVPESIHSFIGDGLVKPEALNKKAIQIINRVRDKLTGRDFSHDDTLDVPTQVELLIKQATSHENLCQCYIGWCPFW
PI3Kα (p110α/p85α), sequence (P42336 whole entry): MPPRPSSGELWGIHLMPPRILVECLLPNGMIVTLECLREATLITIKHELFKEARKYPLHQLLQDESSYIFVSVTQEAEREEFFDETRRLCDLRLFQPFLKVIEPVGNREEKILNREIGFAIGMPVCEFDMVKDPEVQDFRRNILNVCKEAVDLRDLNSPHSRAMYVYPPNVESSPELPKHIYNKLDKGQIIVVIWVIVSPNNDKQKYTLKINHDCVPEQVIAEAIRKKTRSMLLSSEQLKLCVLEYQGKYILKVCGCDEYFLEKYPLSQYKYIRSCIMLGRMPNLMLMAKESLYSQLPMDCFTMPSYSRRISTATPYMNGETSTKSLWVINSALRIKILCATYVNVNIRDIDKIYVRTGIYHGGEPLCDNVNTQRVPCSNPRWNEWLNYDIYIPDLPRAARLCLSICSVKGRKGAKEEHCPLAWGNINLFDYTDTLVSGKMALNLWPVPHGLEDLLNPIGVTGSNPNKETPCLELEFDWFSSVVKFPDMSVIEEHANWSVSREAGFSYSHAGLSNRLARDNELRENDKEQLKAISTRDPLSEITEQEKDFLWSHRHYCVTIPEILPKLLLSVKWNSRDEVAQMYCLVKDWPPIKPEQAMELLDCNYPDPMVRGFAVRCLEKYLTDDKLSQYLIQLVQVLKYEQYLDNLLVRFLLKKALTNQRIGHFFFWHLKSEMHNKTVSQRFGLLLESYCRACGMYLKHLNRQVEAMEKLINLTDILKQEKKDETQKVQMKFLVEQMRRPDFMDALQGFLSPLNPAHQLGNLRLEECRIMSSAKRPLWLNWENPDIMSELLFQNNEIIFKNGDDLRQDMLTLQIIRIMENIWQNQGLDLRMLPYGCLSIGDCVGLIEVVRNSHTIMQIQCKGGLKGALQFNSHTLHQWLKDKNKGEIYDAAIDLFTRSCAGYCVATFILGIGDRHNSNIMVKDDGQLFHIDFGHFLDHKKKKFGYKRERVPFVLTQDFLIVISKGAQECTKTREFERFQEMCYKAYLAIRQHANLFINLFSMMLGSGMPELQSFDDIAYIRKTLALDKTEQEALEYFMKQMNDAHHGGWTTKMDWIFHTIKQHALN
PI3Kα (p110α/p85α), sequence (P27986 whole entry partner): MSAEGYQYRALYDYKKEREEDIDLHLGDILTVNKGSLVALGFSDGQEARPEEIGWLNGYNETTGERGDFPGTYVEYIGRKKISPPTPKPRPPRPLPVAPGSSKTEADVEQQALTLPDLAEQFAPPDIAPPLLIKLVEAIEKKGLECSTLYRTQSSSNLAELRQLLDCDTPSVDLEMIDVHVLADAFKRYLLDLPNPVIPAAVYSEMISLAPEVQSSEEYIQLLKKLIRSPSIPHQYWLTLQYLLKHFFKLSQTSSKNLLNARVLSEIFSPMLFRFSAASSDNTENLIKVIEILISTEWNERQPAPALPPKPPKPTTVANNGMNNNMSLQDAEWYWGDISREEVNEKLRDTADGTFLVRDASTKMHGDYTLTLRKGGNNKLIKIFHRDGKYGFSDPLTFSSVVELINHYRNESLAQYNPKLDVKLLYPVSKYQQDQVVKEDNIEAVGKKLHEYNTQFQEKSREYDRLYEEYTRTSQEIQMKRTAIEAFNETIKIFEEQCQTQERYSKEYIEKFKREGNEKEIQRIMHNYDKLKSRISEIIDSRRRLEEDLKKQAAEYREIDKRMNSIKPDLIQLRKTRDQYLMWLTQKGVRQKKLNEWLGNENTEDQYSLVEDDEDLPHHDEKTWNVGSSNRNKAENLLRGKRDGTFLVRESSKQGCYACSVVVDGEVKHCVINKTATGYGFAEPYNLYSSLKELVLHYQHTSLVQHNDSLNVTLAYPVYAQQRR

COCCN1CC(C)(C)Oc2nc(N3CCOC[C@@H]3C)nc(-c3ccc(NC(=O)NCC(C)(C)O)c(F)c3)c2C1=O [Example 226, 1-{2-Fluoro-4-[6-(2-methoxyethyl)-8,8-dimethyl-2-((S)-3-methylmorpholin-4-yl)-5-oxo-5,6,7,8-tetrahydro-9-oxa-1,3,6-triazabenzocyclohepten-4-yl]phenyl}-3-(2-hydroxy-2-methylpropyl)urea]
IC50 [1]: 1.28 µM | PI3Ka IC50 [2]: >10 µM

COCCN1CC(C)(C)Oc2nc(N3CCOC[C@@H]3C)nc(-c3ccc(NC(=O)Nc4cccc(OC(F)F)c4)cc3)c2C1=O [Example 216, 1-(3-Difluoromethoxyphenyl)-3-{4-[6-(2-methoxyethyl)-8,8-dimethyl-2-((S)-3-methylmorpholin-4-yl)-5-oxo-5,6,7,8-tetrahydro-9-oxa-1,3,6-triazabenzocyclohepten-4-yl]phenyl}urea]
IC50 [1]: 0.125 µM | PI3Ka IC50 [2]: 1.83 µM | IC50 [3]: 0.514 µM

CCN1CC(C)(C)Oc2nc(N3CC4CCC(C3)O4)nc(-c3ccc(NC(=O)NCc4ccc(OC)nc4)c(F)c3)c2C1=O [Example 145, 1-{4-[6-Ethyl-8,8-dimethyl-2-(8-oxa-3-azabicyclo[3.2.1]oct-3-yl)-5-oxo-5,6,7,8-tetrahydro-9-oxa-1,3,6-triazabenzocyclohepten-4-yl]-2-fluorophenyl}-3-(6-methoxypyridin-3-ylmethyl)urea]
IC50 [1]: 2.98 µM | PI3Ka IC50 [2]: >10 µM | IC50 [3]: > 10 µM

CCNC(=O)Nc1ccc(-c2nc(N3C[C@@H](C)O[C@@H](C)C3)nc3c2C(=O)N(CC)CC(C)(C)O3)cc1 [Example 114, 1-{4-[2-((2S,6R)-2,6-Dimethylmorpholin-4-yl)-6-ethyl-8,8-dimethyl-5-oxo-5,6,7,8-tetrahydro-9-oxa-1,3,6-triazabenzocyclohepten-4-yl]phenyl}-3-ethylurea]
IC50 [1]: 1.22 µM | PI3Ka IC50 [2]: >10 µM | IC50 [3]: > 10 µM

CCN1CC(C)(C)Oc2nc(N3CC4CCC(C3)O4)nc(-c3ccc(NC(=O)NC(C)(C)CO)c(F)c3)c2C1=O [Example 224, 1-{4-[6-Ethyl-8,8-dimethyl-2-(8-oxa-3-azabicyclo[3.2.1]oct-3-yl)-5-oxo-5,6,7,8-tetrahydro-9-oxa-1,3,6-triazabenzocyclohepten-4-yl]-2-fluorophenyl}-3-(2-hydroxy-1,1-dimethylethyl)urea]
IC50 [1]: 1.12 µM | PI3Ka IC50 [2]: >10 µM

CCN1CC(C)(C)Oc2nc(N3CC4CCC(C3)O4)nc(-c3ccc(NS(=O)(=O)CC)cc3)c2C1=O [Example 111, Ethanesulfonic acid {4-[6-ethyl-8,8-dimethyl-2-(8-oxa-3-azabicyclo[3.2.1]oct-3-yl)-5-oxo-5,6,7,8-tetrahydro-9-oxa-1,3,6-triazabenzocyclohepten-4-yl]phenyl}amide]
IC50 [1]: 6.35 µM | PI3Ka IC50 [2]: >10 µM

CCN1CC(C)(C)Oc2nc(N3CC4CCC(C3)O4)nc(-c3ccc(NC(=O)Nc4cccc(OC)n4)c(F)c3)c2C1=O [Example 142, 1-{4-[6-Ethyl-8,8-dimethyl-2-(8-oxa-3-azabicyclo[3.2.1]oct-3-yl)-5-oxo-5,6,7,8-tetrahydro-9-oxa-1,3,6-triazabenzocyclohepten-4-yl]-2-fluorophenyl}-3-(6-methoxypyridin-2-yl)urea]
IC50 [1]: 0.495 µM | PI3Ka IC50 [2]: >10 µM | IC50 [3]: 3.1 µM

CCN1CC(C)(C)Oc2nc(N3CCOCC3)nc(-c3ccc(OC)c(CO)c3)c2C1=O [Example 100, 6-Ethyl-4-(3-hydroxymethyl-4-methoxyphenyl)-8,8-dimethyl-2-morpholin-4-yl-7,8-dihydro-6H-9-oxa-1,3,6-triazabenzocyclohepten-5-one]
IC50 [1]: 7.29 µM | PI3Ka IC50 [2]: 7.44 µM | IC50 [3]: > 10 µM

CCNC(=O)Nc1ccc(-c2nc(N3CCOCC3)nc3c2C(=O)N(CC)CCO3)cc1 [Example 97, 1-Ethyl-3-[4-(6-ethyl-2-morpholin-4-yl-5-oxo-5,6,7,8-tetrahydro-9-oxa-1,3,6-triazabenzocyclohepten-4-yl)phenyl]urea]
IC50 [1]: 0.8 µM | PI3Ka IC50 [2]: 2.159 µM | IC50 [3]: > 10 µM

CCN1CC(C)(C)Oc2nc(N3CC4CCC(C3)O4)nc(-c3ccc(NC(=O)Nc4ccc(OC)nc4)c(C)c3)c2C1=O [Example 175, 1-{4-[6-Ethyl-8,8-dimethyl-2-(8-oxa-3-azabicyclo[3.2.1]oct-3-yl)-5-oxo-5,6,7,8-tetrahydro-9-oxa-1,3,6-triazabenzocyclohepten-4-yl]-2-methylphenyl}-3-(6-methoxypyridin-3-yl)urea]
IC50 [1]: 0.585 µM | PI3Ka IC50 [2]: >10 µM | IC50 [3]: 3.05 µM

CCN1CC(C)(C)Oc2nc(N3CC4CCC(C3)O4)nc(-c3ccc(NC(=O)Nc4ccnn4C)cc3)c2C1=O [Example 115, 1-{4-[6-Ethyl-8,8-dimethyl-2-(8-oxa-3-azabicyclo[3.2.1]oct-3-yl)-5-oxo-5,6,7,8-tetrahydro-9-oxa-1,3,6-triazabenzocyclohepten-4-yl]phenyl}-3-(2-methyl-2H-pyrazol-3-yl)urea]
IC50 [1]: 0.147 µM | PI3Ka IC50 [2]: >10 µM | IC50 [3]: 5 µM

CCNC(=O)Nc1ccc(-c2nc(N3CC4CCC(C3)O4)nc3c2C(=O)N(CCCO)CC(C)(C)O3)cc1 [Example 9, 1-ethyl-3-{4-[6-(3-hydroxypropyl)-8,8-dimethyl-2-(8-oxa-3-azabicyclo[3.2.1]oct-3-yl)-5-oxo-5,6,7,8-tetrahydro-9-oxa-1,3,6-triazabenzocyclohepten-4-yl]phenyl}urea]
IC50 [1]: 0.065 µM | PI3Ka IC50 [2]: >10 µM | IC50 [3]: 2.5 µM

CCNC(=O)Nc1ccc(-c2nc(N3CC4CCC(C3)O4)nc3c2C(=O)N(C[C@@H]2CCCN2C(C)=O)CC(C)(C)O3)cc1F [Example 6, 1-{4-[6-((S)-1-acetylpyrrolidin-2-ylmethyl)-8,8-dimethyl-2-(8-oxa-3-azabicyclo[3.2.1]oct-3-yl)-5-oxo-5,6,7,8-tetrahydro-9-oxa-1,3,6-triazabenzocyclohepten-4-yl]-2-fluorophenyl}-3-ethylurea]
IC50 [1]: 1.07 µM | PI3Ka IC50 [2]: >10 µM | IC50 [3]: 7.15 µM

CCNC(=O)Nc1ccc(-c2nc(N3CC4CCC(C3)O4)nc3c2CN(CC)CC(C)(C)O3)cc1 [Example 113, 1-Ethyl-3-{4-[6-ethyl-8,8-dimethyl-2-(8-oxa-3-azabicyclo[3.2.1]oct-3-yl)-5,6,7,8-tetrahydro-9-oxa-1,3,6-triazabenzocyclohepten-4-yl]phenyl}urea]
IC50 [1]: 3.96 µM | PI3Ka IC50 [2]: >10 µM | IC50 [3]: > 10 µM

CCN1CC(C)(C)Oc2nc(N3CC4CCC(C3)O4)nc(-c3ccc(N)nc3)c2C1=O [Example 107, 4-(6-Aminopyridin-3-yl)-6-ethyl-8,8-dimethyl-2-(8-oxa-3-azabicyclo[3.2.1]oct-3-yl)-7,8-dihydro-6H-9-oxa-1,3,6-triazabenzocyclohepten-5-one]
IC50 [1]: 2.65 µM | PI3Ka IC50 [2]: 9.38 µM | IC50 [3]: > 10 µM

CCNC(=O)Nc1ccc(-c2nc(N3CC4CCC(C3)O4)nc3c2C(=O)N(CC)CC(C)(C)O3)cn1 [Example 17, 1-ethyl-3-{5-[6-ethyl-8,8-dimethyl-2-(8-oxa-3-azabicyclo[3.2.1]oct-3-yl)-5-oxo-5,6,7,8-tetrahydro-9-oxa-1,3,6-triazabenzocyclohepten-4-yl]pyridin-2-yl}urea]
IC50 [1]: 2.49 µM | PI3Ka IC50 [2]: >10 µM | IC50 [3]: > 10 µM

CCN1CC(C)(C)Oc2nc(N3CC4CCC(C3)O4)nc(-c3ccc(OC)c(CO)c3)c2C1=O [Example 101, 6-Ethyl-4-(3-hydroxymethyl-4-methoxyphenyl)-8,8-dimethyl-2-(8-oxa-3-azabicyclo[3.2.1]oct-3-yl)-7,8-dihydro-6H-9-oxa-1,3,6-triazabenzocyclohepten-5-one]
IC50 [1]: 4.04 µM | IC50 [3]: > 10 µM

CC1(C)CNC(=O)c2c(nc(N3CCOCC3)nc2-c2ccc(N)nc2)O1 [Example 95, 4-(6-Aminopyridin-3-yl)-8,8-dimethyl-2-morpholin-4-yl-7,8-dihydro-6H-9-oxa-1,3,6-triazabenzocyclohepten-5-one]
IC50 [1]: 0.624 µM | PI3Ka IC50 [2]: >10 µM

CCNC(=O)Nc1ccc(-c2nc(N3C[C@@H](C)O[C@@H](C)C3)nc3c2C(=O)N(CC)CC(C)(C)CO3)cc1 [Example 109, 1-{4-[2-((2S,6R)-2,6-Dimethylmorpholin-4-yl)-6-ethyl-8,8-dimethyl-5-oxo-6,7,8,9-tetrahydro-5H-10-oxa-1,3,6-triazabenzocycloocten-4-yl]phenyl}-3-ethylurea]
IC50 [1]: 7.77 µM | PI3Ka IC50 [2]: 2.046 µM
